In US20200383985A1, “Inhibitors of Protease Activated Receptor-2” (Endosome Therapeutics, Inc., priority 2017, published 2020):
Read-outs that look alike come from different tables or passages of the source.

How the values were obtained:
[1] = tested on: cytosolic and nuclear ERK; test: FRET assays of cytosolic and nuclear ERK in HEK293 cells; type: cell-based; conditions: for trypsin activation of cytosolic and nuclear ERK: I-343 10 μM, SCH530348 100 nM, PS2 30 μM
Protocol: Trypsin-induced ERK signaling mediated by endosomal PAR2 signaling was investigated in HEK293 cells expressing Flag-PAR2-HA11 and FRET biosensors for cytosolic and nuclear ERK (CytoEKAR, NucEKAR), plasma membrane and cytosolic PKC (pmCKAR, CytoCKAR), and plasma membrane and cytosolic cAMP (pmEpac, CytoEpac). […] I-343 (10 μM) but not SCH530348 (100 nM) inhibited trypsin activation of cytosolic and nuclear ERK (FIG. 5G). PS2 and DynK44E inhibited trypsin-stimulated activation of cytosolic and nuclear ERK when compared to PS2 inact and DynWT controls (FIG. 5H, 5I, 17G-J). AG1478 (1 μM), an inhibitor of EGF receptor tyrosine kinase (Levitzki, A. & Gazit, A. Science 1995, 267(5205): 1782-1788), UBO-QIC (100 nM), which inhibits Gαq and certain Gβγ signals ([…]), and G66983 (1 μM), which inhibits all isoforms of PKC (Gschwendt, M, et al., FEBS Lett 1996, 392(2): 77-80), suppressed trypsin-stimulated activation of cytosolic ERK (FIGS. 5J and 17K).
HEK293 cells were cultured in DMEM supplemented with 10% (v/v) FBS (5% CO2, 37° C.). When necessary serum restriction was achieved by replacing culture medium with DMEM containing 0.5% FBS overnight. Cells were transiently transfected using polyethylenimine (PEI) (1:6 DNA:PEI).
HEK293 cells were transiently transfected in 10 cm dishes (˜50% confluency) with Flag-PAR2-HA (2.5 μg) and FRET biosensors CytoEKAR or NucEKAR (2.5 μg) (Jensen, D. D. et al., Sci Transl Med. 2017, 9(392), eaal3447; Thomsen, A. R. B., et al., Cell 2016, 166(4): 907-919). In experiments examining the role of dynamin, cells were transfected with FLAG-PAR2-HA (1.25 μg), FRET biosensor (1.25 μg) and either DynWT-HA, DynK44E-HA or pcDNA3.1 (2.5 μg). At 24 h after transfection, cells were seeded on ViewPlate-96 well plates (PerkinElmer). FRET was assessed 72 h post-transfection, following overnight serum restriction. Cells were equilibrated in HBSS-HEPES (30 min, 37° C.). FRET was measured using a PHERAstar FSX Microplate Reader (BMG LabTech). For CFP/YFP emission ratio analysis, cells were sequentially excited using a CFP filter (425/10 nm) with emission measured using YFP (550/50 nm) and CFP (490/20 nm) filters. FRET was measured before and after stimulation with trypsin (10 nM), NE (100 nM), CS (100 nM), phorbol 12,13-dibutyrate, PDBu (positive control, 1 μM), or vehicle. FRET ratios (donor/acceptor intensity for EKAR, or acceptor/donor intensity for CKAR and Epac) were calculated and corrected to baseline and vehicle treatments to determine ligand-induced FRET (ΔFRET). Treatment effects were determined by comparison of area under the curve values. Signalling inhibitors were dissolved in HBSS-HEPES. PS2 and PS2 inact were dissolved in HBSS-HEPES+1% DMSO. Cells were incubated with UBO-QIC (100 nM), AG1478 (1 μM), G66983 (1 μM), PS2 or PS2 inact (30 μM) or vehicle (30 min preincubation, inclusion throughout).

[2] = tested on: colonic afferent neurons; test: Colonic afferent recordings, healthy mice; set-up: species or system mouse; conditions: for basal mechanical sensitivity of colonic afferents / trypsin-induced sensitization of mechanical responses: I-343 10 μM, PS2 or PS2 inact 50 μM; for amplification of frequency of firing to mechanical stimulation: healthy mice, 2 g filament, trypsin 10 nM, NE 100 nM, CS 100 nM, 10 min
Text: To examine whether proteases cleave PAR2 on the peripheral terminals of colonic nociceptors to induce mechanical hypersensitivity, single unit recordings from afferent neurons innervating the mouse colon were made. Receptive fields were identified by mechanical stimulation of the mucosal surface with von Frey filaments, proteases were applied to the mucosal receptive fields, and mechanical responses were re-evaluated to assess sensitization. Under basal conditions, repeated mechanical stimulation (2 g filament) induced reproducible firing (FIG. 9A). […] The results support the hypothesis that PAR2 endocytosis is required trypsin-induced sensitization of colonic afferent neurons. The colon and rectum (5-6 cm) was removed from C57BL/6 mice. Afferent recordings were made from splanchnic nerves as described (Hughes, P. A. et al., Gut 2009, 58(10): 1333-134; Brierley, S. M. et al., Gastroenterology 2004, 127(1): 166-178). Briefly, the intestine was opened and pinned flat, mucosal side up, in an organ bath. […] The splanchnic nerve was extended into a paraffin-filled recording compartment, in which finely dissected strands were laid onto a platinum electrode for single-unit extracellular recordings of action potentials generated by mechanical stimulation of receptive fields in the colon. Receptive fields were identified by mechanical stimulation of the mucosal surface with a brush of sufficient stiffness to activate all types of mechanosensitive afferents. […] These neurons express an array of channels and receptors involved in pain, become mechanically hypersensitive in models of chronic visceral pain, and have a nociceptor phenotype. They are therefore referred to as “colonic nociceptors”. […] Proteases were applied to a metal cylinder placed over the receptive mucosal field of interest. […] Action potentials were analyzed using the Spike 2 […] function and discriminated as single units on the basis of distinguishable waveform, amplitude and duration.

[3] = biological target: T1, PAR2-RLuc8 (Homo sapiens, UniProt P55085); test: BRET assays of PAR2 endocytosis in HEK293 cells; type: cell-based; conditions: for EC50: HEK293 cells
T1 construct: expressed in transfected cells; host or cells: HEK293, transient transfection with PEI
T1 sequence (P55085 26-397): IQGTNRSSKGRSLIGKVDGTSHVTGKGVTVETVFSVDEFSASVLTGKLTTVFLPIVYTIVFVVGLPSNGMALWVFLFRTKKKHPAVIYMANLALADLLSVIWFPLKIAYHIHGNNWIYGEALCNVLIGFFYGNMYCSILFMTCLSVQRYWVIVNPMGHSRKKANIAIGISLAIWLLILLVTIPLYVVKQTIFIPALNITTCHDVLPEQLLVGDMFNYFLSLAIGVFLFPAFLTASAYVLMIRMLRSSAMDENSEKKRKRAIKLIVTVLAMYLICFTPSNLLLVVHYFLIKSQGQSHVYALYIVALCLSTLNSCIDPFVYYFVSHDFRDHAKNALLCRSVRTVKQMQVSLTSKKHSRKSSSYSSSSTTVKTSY

Compound | trypsin activation of cytosolic and nuclear ERK [1] | basal mechanical sensitivity of colonic afferents [2] | trypsin-induced sensitization of mechanical responses [2] | amplification of frequency of firing to mechanical stimulation [2] [%] | also measured
Cc1nc(C(=O)N2CCN(C(=O)c3cn4nc(-c5ccc(F)cc5)cc(C(C)(C)C)c4n3)C(C)(C)C2)n[nH]1 [Compound I-343, (8-(tert-butyl)-6-(4-fluorophenyl)imidazo[1,2-b]pyridazin-2-yl)(2,2-dimethyl-4-(5-methyl-1H-1,2,4-triazole-3-carbonyl)piperazin-1-yl)methanone] | inhibited | did not affect | abolished |  | 
O=C1NC(=NS(=O)(=O)c2cccc3ccccc23)S/C1=C\c1ccc(Br)cc1 [PS2] | inhibited | did not affect | abolished |  | trypsin-induced decrease in PAR2-RLuc8/RIT-Venus BRET and increase in PAR2-RLuc8/Rab5a-Venus BRET ([3]; PS2 or PS2 inact): suppressed
NE: protease (elastase) activating PAR2 by biased mechanisms |  |  |  | 41.0±11.8 | PAR2-RLuc8/RIT-Venus or Rab5a-Venus BRET ([3]; 100 nM): Neither NE nor CS (100 nM) affected
trypsin |  |  |  | 35.8±5.9 | EC50 ([3]; read-out: EC50, decrease in PAR2-RLuc8/RIT-Venus BRET): 2.9 nM; EC50 ([3]; read-out: EC50, increase in PAR2-RLuc8/Rab5a-Venus BRET): 2.7 nM; PAR2-RLuc8/Rab5a-Venus BRET after 60 min ([3]; compared to HC supernatant, trypsin 10 nM positive control): increased; EC50 ([1]; HEK293 cells, read-out: EC50, activation of ERK in the cytosol and nucleus): 5 nM; activation of ERK in the cytosol and nucleus ([1]; trypsin 10 nM, NE or CS 100 nM): stimulated a rapid and persistent activation
